Source: patent US20110045101A1, “FUNGICIDAL SUBSTITUTED AZOLES” (E.I. Du Pont De Nemours and Company, priority 2009, published 2011)
Marks after values point to notes of the source that are not given here.

Legend:
Format in all cases: in vivo
Conditions in all cases: 100 = 100% disease control
Septoria nodorum = experiment: Test F: wheat glume blotch on wheat seedlings, sprayed the day before inoculation, visual disease rating
How it was run: (§1)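 Ratings reflect a 200 ppm spray (≈500 g/ha) unless marked as 40 ppm. Plants were sprayed to run-off. The spray suspension was acetone/purified water 50/50 containing 250 ppm Trem 014, after first dissolving compound in acetone at 3% of final volume.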

[1] = tested on: Erysiphe graminis f. sp. tritici; experiment: Test J: wheat powdery mildew on wheat seedlings, sprayed the day before inoculation, visual disease rating
How it was run: as §1

Alternaria solani = experiment: Test D: tomato early blight, sprayed the day before inoculation, visual disease rating
How it was run: as §1

[2] = tested on: Puccinia recondita f. sp. tritici; experiment: Test I: wheat leaf rust on wheat seedlings, sprayed the day before inoculation, visual disease rating
How it was run: as §1

[3] = tested on: Puccinia recondita f. sp. tritici; experiment: Test H: wheat leaf rust, test suspension sprayed after inoculation of wheat seedlings, visual disease rating
How it was run: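 Wheat seedlings inoculated with P. recondita spores, held 24 h saturated at 20 °C, then 2 days in growth chamber at 20 °C; compound suspension (acetone/water with Trem 014) sprayed to run-off afterwards. Rated visually; 200 ppm (≈500 g/ha) unless marked *, which denotes 40 ppm.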

Septoria tritici = experiment: Test G: wheat leaf blotch on wheat seedlings, sprayed the day before inoculation, visual disease rating
How it was run: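 Seedlings receive a protective spray of test suspension in acetone/water carrying 250 ppm surfactant, mostly at 200 ppm and at 40 ppm where marked. They are inoculated the next day, kept saturated at 24° C for 48 h, then held at 20° C for 19 days before visual scoring.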

Botrytis cinerea = experiment: Test C: tomato Botrytis on tomato seedlings, sprayed the day before inoculation, visual disease rating
How it was run: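 Disease scored by eye on tomato seedlings inoculated with Botrytis cinerea a day after treatment. Treatment was a run-off spray at 200 ppm (equivalent to 500 g/ha), or 40 ppm where marked, in acetone/water carrying 250 ppm Trem 014.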

[4] = 200 ppm, 0 = no control relative to controls

Row | SMILES | Test F disease control rating (Septoria nodorum; [4]) | Test J disease control rating [1, 4] | Test D disease control rating (Alternaria solani; [4]) | Test I disease control rating [2, 4] | Test H disease control rating [3, 4] | Test G disease control rating (Septoria tritici; [4]) | Test C disease control rating (Botrytis cinerea; [4]) | further results
1 | COc1ccc(F)c(-c2c(Br)nc(Br)n2-c2ccc(Cl)cc2)c1F [compound 471] | 100% | 100% | 100% | 98% | 0% | 97% | 100% | 
2 | COc1ccc(F)c(-c2c(Cl)nc(Br)n2-c2ccc(Cl)c(F)c2)c1F [compound 317] | 100% | 100% | 100% | 99% | 17% | 95% | 100% | 
3 | Cc1ccc(-n2c(Cl)nc(Br)c2-c2c(F)ccc(F)c2Cl)cc1 [compound 464] |  |  |  |  |  |  |  | Test F disease control rating (Septoria nodorum; 40 ppm (marked *)): 0* %; Test J disease control rating ([1]; 40 ppm (marked *)): 100* %; Test D disease control rating (Alternaria solani; 40 ppm (marked *)): 89* %; Test I disease control rating ([2]; 40 ppm (marked *)): 99* %; Test H disease control rating ([3]; 40 ppm (marked *)): 0* %; Test G disease control rating (Septoria tritici; 40 ppm (marked *)): 72* %; Test C disease control rating (Botrytis cinerea; 40 ppm (marked *)): 99* %
4 | COc1ccc(F)c(-c2c(Cl)nc(Br)n2-c2cccc(C)c2)c1F [compound 316] | 95% | 100% | 99% | 99% | 6% | 93% | 99% | 
5 | Clc1ccc(-c2c(Cl)nc(Br)n2Cc2cccc(Cl)c2)cc1 [compound 290] |  |  |  |  |  |  |  | Test F disease control rating (Septoria nodorum; 200 ppm, 0 = no control): 0%; Test J disease control rating ([1]; 200 ppm, 0 = no control): 0%; Test D disease control rating (Alternaria solani; 200 ppm, 0 = no control): 0%; Test I disease control rating ([2]; 200 ppm, 0 = no control): 19%; Test H disease control rating ([3]; 200 ppm, 0 = no control): 11%; Test G disease control rating (Septoria tritici; 200 ppm, 0 = no control): 85%; Test C disease control rating (Botrytis cinerea; 200 ppm, 0 = no control): 95%
6 | COc1ccc(F)c(-c2c(C)nc(Br)n2-c2ccc(Cl)nc2)c1F [compound 735] | 99% | 100% | 100% | 100% | 9% | 100% | 100% | 
7 | COC(=O)c1ccc(-n2cnc(Cl)c2-c2c(F)cccc2F)cc1 [compound 614] |  |  |  |  |  |  |  | Test F disease control rating (Septoria nodorum; 40 ppm (marked *)): 0* %; Test J disease control rating ([1]; 40 ppm (marked *)): 0* %; Test D disease control rating (Alternaria solani; 40 ppm (marked *)): 0* %; Test I disease control rating ([2]; 40 ppm (marked *)): 28* %; Test H disease control rating ([3]; 40 ppm (marked *)): 0* %; Test G disease control rating (Septoria tritici; 40 ppm (marked *)): 92* %; Test C disease control rating (Botrytis cinerea; 40 ppm (marked *)): 89* %
8 | COc1cc(F)c(-c2c(Cl)nc(Br)n2-c2ccc(OC)c(Cl)c2)c(F)c1 [compound 645] |  |  |  |  |  |  |  | Test F disease control rating (Septoria nodorum; 40 ppm (marked *)): 0* %; Test J disease control rating ([1]; 40 ppm (marked *)): 35* %; Test D disease control rating (Alternaria solani; 40 ppm (marked *)): 17* %; Test I disease control rating ([2]; 40 ppm (marked *)): 83* %; Test H disease control rating ([3]; 40 ppm (marked *)): 0* %; Test G disease control rating (Septoria tritici; 40 ppm (marked *)): 95* %; Test C disease control rating (Botrytis cinerea; 40 ppm (marked *)): 99* %
9 | Fc1ccc(-n2c(Br)nc(Cl)c2-c2ccc(Cl)c(F)c2)c(Cl)c1 [compound 328] | 0% | 98% | 98% | 94% | 9% | 95% | 100% | 
10 | Cc1cccc(-c2c(CCl)nc(Cl)n2-c2ccc(Cl)c(F)c2)n1 [compound 379] | 0% | 0% | 0% | 27% | 0% | 86% | 99% | 
11 | Cc1ncn(-c2ccc(Cl)c(F)c2)c1-c1sc(Cl)nc1Cl [compound 377] | 0% | 33% | 0% | 27% | 0% | 3% | 0% | 
12 | COc1ccc(F)c(-c2c(Cl)nc(Cl)n2-c2ccc(Cl)c(F)c2)c1F [compound 392] | 100% | 100% | 100% | 99% | 60% | 97% | 100% | 
13 | CCc1cccc(-n2c(C)nc(Cl)c2-c2c(F)ccc(OC)c2F)c1 [compound 418] | 99% | 100% | 100% | 97% | 0% | 100% | 100% | 
14 | Fc1cccc(-n2cnc(Cl)c2-c2c(F)ccc(Br)c2F)c1 [compound 623] | 0% | 100% | 33% | 98% | 0% | 97% | 98% | 
15 | COc1cc(F)c(-c2c(Cl)nc(Cl)n2-c2cncc(Br)c2)c(F)c1 [compound 678] | 100% | 100% | 100% | 100% | 100% | 99% | 100% | 
16 | COc1cc(F)c(-c2c(Cl)nc(C)n2Cc2ccc(C)nc2)c(F)c1 [compound 671] | 92% | 0% | 100% | 78% | 17% | 95% | 99% | 
17 | COc1cc(F)c(-c2c(Cl)nc(Cl)n2-c2cccnc2Cl)c(F)c1 [compound 513] | 100% | 100% | 100% | 100% | 100% | 100% | 99% | 
18 | Fc1cccc(F)c1-c1c(Br)nc(CCBr)n1-c1ccc(Cl)cc1 [Compound 475, 4-bromo-2-(bromoethyl)-1-(4-chlorophenyl)-5-(2,6-difluorophenyl)-1H-imidazole] |  |  |  |  |  |  |  | pest or weed control at 200 ppm (Septoria nodorum; Parastagonospora nodorum, 264 h, 200 ppm, 0 = no control relative to controls): 0%; pest or weed control at 200 ppm ([1]; Blumeria graminis, 168 h, 200 ppm, 0 = no control relative to controls): 42%; pest or weed control at 200 ppm (Alternaria solani; Alternaria solani, 168 h, 200 ppm, 0 = no control relative to controls): 26%; pest or weed control at 200 ppm ([2]; Puccinia recondita, 168 h, 200 ppm, 0 = no control relative to controls): 87%; pest or weed control at 200 ppm ([3]; Puccinia recondita, 96 h, 200 ppm, 0 = no control relative to controls): 0%; pest or weed control at 200 ppm (Septoria tritici; Zymoseptoria tritici, 504 h, 200 ppm, 0 = no control relative to controls): 92%; pest or weed control at 200 ppm (Botrytis cinerea; Botrytis cinerea, 120 h, 200 ppm, 0 = no control relative to controls): 98%
19 | Cc1ncn(-c2ccc(Cl)c(F)c2)c1-c1ccccc1F [compound 318] | 0% | 87% | 16% | 9% | 0% | 91% | 100% | 
20 | COc1ccc(Cl)c(-c2c(Cl)nc(C)n2-c2ccc(Cl)cc2)c1F [compound 550] | 100% | 100% | 100% | 99% | 0% | 97% | 100% | 
